In ChEMBL document CHEMBL2390865, “Discovery of aryl ureas and aryl amides as potent and selective histamine H3 receptor antagonists for the treatment of obesity (part II)” (Bioorg Med Chem Lett, 2013):
In brackets after ≈: the same amount, converted by molar mass. Values belong to the compound of their own block, whether it stands above or below them. Activity calls are given as the source filed them. No cut-off for these calls is given here.

Columns and labels:
[1] = Drug metabolism in mouse liver microsomes; format: ADME, Microsome; conditions: read-out: Drug metabolism
[2] = Drug metabolism in rat liver microsomes; format: ADME, Microsome; conditions: read-out: Drug metabolism
[3] = Displacement of [3H]N-alpha-methylhistamine from rhesus monkey histamine H3 receptor transfected in CHO cells; format: cell-based, Macaca mulatta
[4] = Drug metabolism in human liver microsomes; format: ADME, Microsome; conditions: read-out: Drug metabolism
[5] = Apparent permeability across human Caco2/TC7 cells; format: ADME, cell-based; conditions: Caco-2
hERG (KCNH2) [6] = biological target: T1, hERG (KCNH2) (Homo sapiens, UniProt Q12809); assay: Inhibition of human ERG channel at 10 uM
hERG (KCNH2) [7] = biological target: T1, hERG (KCNH2); assay: Inhibition of human ERG channel at 1 uM
Histamine H3 receptor [8] = biological target: T2, Histamine H3 receptor (Homo sapiens, UniProt Q9Y5N1); assay: Antagonist activity at human histamine H3 receptor by FLIPR assay
Histamine H3 receptor [9] = biological target: T2, Histamine H3 receptor; assay: Antagonist activity at human histamine H3 receptor at 10 uM by GTPgammaS binding assay; format: functional
Histamine H3 receptor [10] = biological target: Histamine H3 receptor (Rattus norvegicus, UniProt Q9QYN8); assay: Displacement of [3H]N-alpha-methylhistamine from rat histamine H3 receptor
Histamine H3 receptor [11] = biological target: T2, Histamine H3 receptor; assay: Displacement of [3H]N-alpha-methylhistamine from human histamine H3 receptor
[12] = biological target: Voltage-gated inwardly rectifying potassium channel KCNH2 (Homo sapiens, UniProt Q12809); assay: Inhibition of human ERG channel
[13] = biological target: Histamine H2 receptor (Homo sapiens) (UniProt P25021); assay: Binding affinity to human histamine H2 receptor
Histamine H1 receptor = Histamine H1 receptor (Homo sapiens, UniProt P35367); assay: Binding affinity to human histamine H1 receptor
[14] = Antagonist activity at rhesus monkey histamine H3 receptor by GTPgammaS binding assay; design: species or system Macaca mulatta
Mus musculus [15] = assay: Antiobesity activity in diet-induced obese mouse assessed as reduction in accumulated food intake at 1 to 3 mg/kg, po after 4 hrs (reference value: -4.7 %); format: functional; design: scale not given: the % may be the effect or the level left; conditions: dose mg/kg 1-3
[16] = Solubility of the compound; format: physicochemical
Mus musculus [17] = assay: Antiobesity activity in po dosed diet-induced obese mouse assessed as reduction in accumulated food intake after 4 to 12 hrs; format: functional, organism-based
Mus musculus [18] = assay: Antiobesity activity in diet-induced obese mouse assessed as reduction in accumulated food intake at 1 to 3 mg/kg, po after 6 hrs (reference value: 0.1 %); format: functional; design: scale not given: the % may be the effect or the level left; conditions: dose mg/kg 1-3
Mus musculus [19] = assay: Antiobesity activity in diet-induced obese mouse assessed as reduction in accumulated food intake at 1 to 3 mg/kg, po after 12 hrs (reference value: 27.3 %); format: functional; design: scale not given: the % may be the effect or the level left; conditions: dose mg/kg 1-3

T2 sequence (Q9Y5N1 whole entry): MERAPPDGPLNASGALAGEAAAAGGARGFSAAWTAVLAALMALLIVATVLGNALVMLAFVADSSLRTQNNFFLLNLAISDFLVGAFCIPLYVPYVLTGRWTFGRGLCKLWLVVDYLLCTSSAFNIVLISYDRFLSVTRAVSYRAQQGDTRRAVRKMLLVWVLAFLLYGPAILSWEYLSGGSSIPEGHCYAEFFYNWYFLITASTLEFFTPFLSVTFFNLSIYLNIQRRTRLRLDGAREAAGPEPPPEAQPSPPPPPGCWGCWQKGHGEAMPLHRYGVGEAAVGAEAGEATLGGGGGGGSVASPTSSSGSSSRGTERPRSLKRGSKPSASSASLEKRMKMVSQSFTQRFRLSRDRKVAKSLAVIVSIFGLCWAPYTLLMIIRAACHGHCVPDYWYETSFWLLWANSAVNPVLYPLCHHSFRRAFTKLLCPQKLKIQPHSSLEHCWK
Histamine H1 receptor, sequence (P35367 whole entry): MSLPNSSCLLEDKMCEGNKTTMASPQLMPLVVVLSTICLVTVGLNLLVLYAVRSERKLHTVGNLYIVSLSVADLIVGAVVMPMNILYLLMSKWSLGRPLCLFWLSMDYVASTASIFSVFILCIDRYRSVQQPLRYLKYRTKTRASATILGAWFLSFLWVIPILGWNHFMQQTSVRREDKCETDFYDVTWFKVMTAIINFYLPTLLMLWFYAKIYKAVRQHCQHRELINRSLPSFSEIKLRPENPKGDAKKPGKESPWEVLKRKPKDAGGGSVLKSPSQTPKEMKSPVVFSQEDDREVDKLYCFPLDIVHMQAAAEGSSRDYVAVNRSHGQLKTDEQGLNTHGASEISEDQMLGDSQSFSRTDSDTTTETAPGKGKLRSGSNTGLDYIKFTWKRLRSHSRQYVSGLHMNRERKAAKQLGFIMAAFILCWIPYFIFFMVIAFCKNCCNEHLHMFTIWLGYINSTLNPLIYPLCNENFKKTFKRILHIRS
Histamine H3 receptor (Rattus norvegicus, UniProt Q9QYN8), sequence (Q9QYN8 whole entry): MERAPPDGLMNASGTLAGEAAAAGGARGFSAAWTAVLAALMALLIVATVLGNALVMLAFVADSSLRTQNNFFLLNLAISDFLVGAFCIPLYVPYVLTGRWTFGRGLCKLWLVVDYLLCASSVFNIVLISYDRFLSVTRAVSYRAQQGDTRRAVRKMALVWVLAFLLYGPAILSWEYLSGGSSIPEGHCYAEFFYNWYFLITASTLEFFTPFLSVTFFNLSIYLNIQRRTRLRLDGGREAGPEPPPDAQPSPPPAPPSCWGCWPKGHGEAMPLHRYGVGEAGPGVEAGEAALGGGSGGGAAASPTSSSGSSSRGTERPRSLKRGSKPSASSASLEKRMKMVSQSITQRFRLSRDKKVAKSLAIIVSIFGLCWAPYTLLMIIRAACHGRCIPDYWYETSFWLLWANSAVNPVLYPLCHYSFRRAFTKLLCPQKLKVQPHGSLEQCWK
Histamine H2 receptor (Homo sapiens), sequence (P25021 whole entry): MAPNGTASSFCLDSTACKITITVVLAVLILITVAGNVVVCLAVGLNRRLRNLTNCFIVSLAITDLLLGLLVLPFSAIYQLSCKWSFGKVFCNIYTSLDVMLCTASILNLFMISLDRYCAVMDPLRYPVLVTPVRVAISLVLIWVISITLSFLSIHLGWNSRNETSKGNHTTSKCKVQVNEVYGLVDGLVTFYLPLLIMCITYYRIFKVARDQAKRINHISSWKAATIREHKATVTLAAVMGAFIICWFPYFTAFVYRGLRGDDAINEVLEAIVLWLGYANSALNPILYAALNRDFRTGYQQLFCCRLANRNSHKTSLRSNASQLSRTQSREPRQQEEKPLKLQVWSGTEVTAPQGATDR
Voltage-gated inwardly rectifying potassium channel KCNH2, sequence (Q12809 whole entry): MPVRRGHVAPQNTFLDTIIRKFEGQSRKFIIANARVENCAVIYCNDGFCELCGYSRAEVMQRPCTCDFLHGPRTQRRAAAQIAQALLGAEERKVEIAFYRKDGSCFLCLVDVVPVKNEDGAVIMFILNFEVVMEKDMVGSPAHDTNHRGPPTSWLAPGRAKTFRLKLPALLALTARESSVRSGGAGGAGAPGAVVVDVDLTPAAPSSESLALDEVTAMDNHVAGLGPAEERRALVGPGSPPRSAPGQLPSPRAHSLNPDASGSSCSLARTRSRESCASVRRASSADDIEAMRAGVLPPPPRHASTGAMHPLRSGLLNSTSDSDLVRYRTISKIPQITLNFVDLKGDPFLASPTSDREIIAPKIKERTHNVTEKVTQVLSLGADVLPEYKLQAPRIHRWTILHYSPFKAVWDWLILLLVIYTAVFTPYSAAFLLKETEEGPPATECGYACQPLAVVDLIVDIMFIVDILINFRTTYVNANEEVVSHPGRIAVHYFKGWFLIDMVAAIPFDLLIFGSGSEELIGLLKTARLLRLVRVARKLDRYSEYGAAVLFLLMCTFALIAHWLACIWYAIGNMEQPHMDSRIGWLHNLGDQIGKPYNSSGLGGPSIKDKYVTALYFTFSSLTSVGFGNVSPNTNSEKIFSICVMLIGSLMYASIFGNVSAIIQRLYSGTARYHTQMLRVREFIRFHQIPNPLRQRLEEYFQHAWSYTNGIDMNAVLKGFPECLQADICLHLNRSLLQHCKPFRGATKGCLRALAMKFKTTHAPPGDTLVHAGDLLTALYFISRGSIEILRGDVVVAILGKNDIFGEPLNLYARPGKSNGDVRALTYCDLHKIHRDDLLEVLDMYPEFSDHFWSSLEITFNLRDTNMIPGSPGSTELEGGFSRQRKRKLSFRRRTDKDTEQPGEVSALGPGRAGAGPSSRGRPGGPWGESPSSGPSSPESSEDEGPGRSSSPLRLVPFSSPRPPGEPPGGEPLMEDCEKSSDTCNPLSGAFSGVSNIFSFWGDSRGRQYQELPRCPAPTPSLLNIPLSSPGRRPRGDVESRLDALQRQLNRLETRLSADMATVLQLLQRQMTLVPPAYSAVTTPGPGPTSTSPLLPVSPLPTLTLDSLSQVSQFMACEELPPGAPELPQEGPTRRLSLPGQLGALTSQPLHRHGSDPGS
T1 sequence (Q12809 whole entry): as above

metabolised [1]: 44% | metabolised [2]: 45% | metabolised [4]: 14%
SMILES: CC1CCCN1C1CCN(c2ccc(NC(=O)c3ccccc3F)c(C(F)(F)F)c2)C1 (stereo unspecified)
Ki [3]: 16.9 nM

SMILES: CC1CCCN1C1CCN(c2ccc(NC(=O)c3cccc(F)c3)c(C(F)(F)F)c2)C1 (stereo unspecified)
Ki [3]: 40 nM

SMILES: CC1CCCN1C1CCN(c2ccc(NC(=O)c3cn[nH]c3)cc2)C1 (stereo unspecified)
Ki [3]: 22.1 nM

SMILES: Cc1cc(N2CCC(N3CCCC3C)C2)ccc1NC(=O)c1cc(Cl)cc(Cl)c1 (stereo unspecified)
Ki [3]: 24.1 nM

Papp [5]: 7.81 ×10⁻⁶ cm/s | metabolised [1]: 21% | metabolised [2]: 64% | metabolised [4]: 16%
SMILES: Cc1cc(N2CCC(N3CCCC3C)C2)ccc1NC(=O)c1ccc2cc[nH]c2c1 (stereo unspecified)
Ki [3]: 15.1 nM

SMILES: Cc1cc(N2CCC(N3CCCC3C)C2)ccc1NC(=O)c1ccc(S(C)(=O)=O)cc1 (stereo unspecified)
Ki [3]: 25.6 nM

SMILES: Cc1cc(N2CCC(N3CCCC3C)C2)ccc1NC(=O)c1ccc(C#N)cc1 (stereo unspecified)
Ki [3]: 11.3 nM

SMILES: Cc1cc(N2CCC(N3CCCC3C)C2)ccc1NC(=O)c1ccc(C)c(S(C)(=O)=O)c1 (stereo unspecified)
Ki [3]: 11.9 nM

Papp [5]: 9.19 ×10⁻⁶ cm/s | metabolised [1]: 16% | metabolised [2]: 37% | metabolised [4]: 2%
SMILES: Cc1cc(C(=O)Nc2ccc(N3CCC(N4CCCC4C)C3)cc2)n[nH]1 (stereo unspecified)
Ki [3]: 44.5 nM

SMILES: Cc1cc(NC(=O)c2cccs2)ccc1N1CCC(N2CCCC2C)C1 (stereo unspecified)
Ki [3]: 19.9 nM

SMILES: Cc1cc(NC(=O)c2c(C)noc2C)ccc1N1CCC(N2CCCC2C)C1 (stereo unspecified)
Ki [3]: 3.2 nM

metabolised [1]: 43% | metabolised [2]: 90% | metabolised [4]: 20%
SMILES: CC1CCCN1C1CCN(c2ccc(NC(=O)c3ccc(Cl)cc3)cc2)C1 (stereo unspecified)
Ki [3]: 4.7 nM | inhibition at 10 µM (hERG (KCNH2) [6]): 95% | inhibition at 1 µM (hERG (KCNH2) [7]): 19.9%

SMILES: Cc1cc(N2CCC(N3CCCC3C)C2)ccc1NC(=O)c1ccc(N2CCOCC2)cc1 (stereo unspecified)
Ki [3]: 44 nM

SMILES: Cc1cc(N2CCC(CN3CCCC3C)C2)ccc1NC(=O)c1ccc2cc[nH]c2c1 (stereo unspecified)
Ki [3]: 18 nM

metabolised [1]: 12% | metabolised [2]: 24% | metabolised [4]: 13%
SMILES: Cc1noc(C)c1C(=O)Nc1ccc(N2CCC(N3CCCC3C)C2)cc1 (stereo unspecified)
Ki [3]: 2.1 nM

metabolised [1]: 22% | metabolised [2]: 33% | metabolised [4]: 32%
SMILES: Cc1cc(N2CCC(N3CCCC3C)C2)ccc1NC(=O)c1ccc(Cl)cc1 (stereo unspecified)
Ki [3]: 2.6 nM

metabolised [1]: 43% | metabolised [2]: 90% | metabolised [4]: 29%
SMILES: Cc1cc(NC(=O)c2ccc(Cl)cc2)ccc1N1CCC(N2CCCC2C)C1 (stereo unspecified)
Ki [3]: 4.8 nM

IC50 (Histamine H3 receptor [8]): 0.48 nM | inhibition (Histamine H3 receptor [9]): 119%
SMILES: CC1CCCN1C1CCN(c2ccc(NC(=O)c3cc(Cl)cc(Cl)c3)cc2)C1 (stereo unspecified)
Ki [3]: 49.5 nM

SMILES: Cc1ccc(F)cc1C(=O)Nc1ccc(N2CCC(N3CCCC3C)C2)cc1C(F)(F)F (stereo unspecified)
Ki [3]: 4 nM

SMILES: Cc1ccc(F)cc1C(=O)Nc1ccc(N2CCC(N3CCCC3C)C2)cc1 (stereo unspecified)
Ki [3]: 4.7 nM

SMILES: Cc1cc(N2CCC(CN3CCCC3C)C2)ccc1NC(=O)c1ccc(C)c(S(C)(=O)=O)c1 (stereo unspecified)
Ki [3]: 29 nM

SMILES: Cc1cc(N2CCC(N3CCCC3C)C2)ccc1NC(=O)c1ccc(-c2cccnc2)cc1 (stereo unspecified)
Ki [3]: 18.8 nM

SMILES: Cc1cc(N2CCC(N3CCCC3C)C2)ccc1NC(=O)c1ccc2[nH]ccc2c1 (stereo unspecified)
Ki [3]: 30.4 nM

SMILES: Cc1cc(N2CCC(N3CCCC3C)C2)ccc1NC(=O)c1ccc(-c2ccccn2)cc1 (stereo unspecified)
Ki [3]: 12.2 nM

Papp [5]: 0.35 ×10⁻⁶ cm/s | metabolised [1]: 16% | metabolised [2]: 28% | metabolised [4]: 2%
SMILES: Cc1cc(N2CCC(N3CCCC3C)C2)ccc1NC(=O)c1cn[nH]c1 (stereo unspecified)
Ki [3]: 24.7 nM

SMILES: CC1CCCN1C1CCN(c2ccc(NC(=O)c3cccc(F)c3)cc2)C1 (stereo unspecified)
Ki [3]: 10.6 nM

SMILES: Cc1cc(N2CC3CC4CCCN4C3C2)ccc1NC(=O)c1cc(F)ccc1C (stereo unspecified)
Ki [3]: 908 nM

SMILES: CC1CCCN1C1CCN(c2ccc(NC(=O)c3cccs3)cc2)C1 (stereo unspecified)
Ki [3]: 14 nM

SMILES: Cc1cc(N2CCC(N3CCCC3C)C2)ccc1NC(=O)c1ccc(Oc2nccs2)cc1 (stereo unspecified)
Ki [3]: 24 nM

SMILES: Cc1cc(N2CCC(N3CCCC3C)C2)ccc1NC(=O)c1cccc(F)c1 (stereo unspecified)
Ki [3]: 12.1 nM

SMILES: CC1CCCN1C1CCN(c2ccc(NC(=O)c3ccc(N(C)C)cc3)cc2)C1 (stereo unspecified)
Ki [3]: 33.5 nM

Ki (Histamine H3 receptor [10]): 55.4 nM | Papp [5]: 9.24 ×10⁻⁶ cm/s | Ki (Histamine H3 receptor [11]): 13.8 nM | Activity [13]: inactive | metabolised [2]: 28% | Ki (Histamine H1 receptor): > 9300 nM | EC50 [14]: 2.9 nM | metabolised [4]: 15%
SMILES: Cc1cc(N2CCC(N3CCCC3C)C2)ccc1NC(=O)c1ccccc1F (stereo unspecified)
IC50 [12]: 1000 nM | Ki [3]: 5.8 nM

SMILES: CC1CCCN1C1CCN(c2ccc(NC(=O)c3cccc(N(C)C)c3)cc2)C1 (stereo unspecified)
Ki [3]: 33.3 nM

SMILES: Cc1cc(N2CCC(N3CCCC3C)C2)ccc1NC(=O)c1ccc(-n2cncn2)cc1 (stereo unspecified)
Ki [3]: 8.1 nM

SMILES: Cc1cc(N2CCC(N3CCCC3C)C2)ccc1NC(=O)c1c(C)noc1C (stereo unspecified)
Ki [3]: 2.6 nM

SMILES: Cc1cc(NC(=O)c2cn[nH]c2)ccc1N1CCC(N2CCCC2C)C1 (stereo unspecified)
Ki [3]: 126 nM

Ki (Histamine H3 receptor [10]): 16.5 nM | Papp [5]: 9.19 ×10⁻⁶ cm/s | Ki (Histamine H3 receptor [11]): 8.6 nM | Activity [13]: inactive | solubility [16]: 2670 µg/mL (≈ 6.75 mM) | metabolised [2]: 38% | Ki (Histamine H1 receptor): > 9300 nM | EC50 [14]: 1.1 nM | metabolised [4]: 5%
SMILES: Cc1cc(N2CCC(N3CCCC3C)C2)ccc1NC(=O)c1cc(F)ccc1C (stereo unspecified)
IC50 [12]: 480 nM | Activity (Mus musculus [15]): 59.8% | Ki [3]: 1.2 nM | Activity (Mus musculus [17]): Dose-dependent effect | Activity (Mus musculus [18]): 39.6% | Activity (Mus musculus [19]): 30.4%

SMILES: Cc1cc(N2CCC(N3CCCC3C)C2)ccc1NC(=O)c1ccc(Oc2ccccn2)cc1 (stereo unspecified)
Ki [3]: 22.8 nM

SMILES: Cc1cc(N2CCC(CN3CCCC3C)C2)ccc1NC(=O)c1ccc(-n2cccc2)cc1 (stereo unspecified)
Ki [3]: 3.1 nM

SMILES: Cc1cc(N2CCC(N3CCCC3C)C2)ccc1NC(=O)c1cccs1 (stereo unspecified)
Ki [3]: 12.4 nM

SMILES: Cc1cc(N2CCC(N3CCCC3C)C2)ccc1NC(=O)c1cc2ccccc2[nH]1 (stereo unspecified)
Ki [3]: 71.1 nM

SMILES: Cc1cc(N2CCC(N3CCCC3C)C2)ccc1NC(=O)c1ccc(-c2ccncc2)cc1 (stereo unspecified)
Ki [3]: 26.7 nM

SMILES: Cc1cc(N2CCC(N3CCCC3C)C2)ccc1NC(=O)c1ccc(-n2cccn2)cc1 (stereo unspecified)
Ki [3]: 39.1 nM

SMILES: COc1ccc(C(=O)Nc2ccc(N3CCC(N4CCCC4C)C3)cc2)cc1 (stereo unspecified)
Ki [3]: 17.6 nM

SMILES: Cc1cc(N2CCC(CN3CCCC3C)C2)ccc1NC(=O)c1ccc2[nH]ccc2c1 (stereo unspecified)
Ki [3]: 45 nM

SMILES: CC1CCCN1C1CCN(c2ccc(NC(=O)c3ccccc3N(C)C)cc2)C1 (stereo unspecified)
Ki [3]: 13.8 nM

SMILES: Cc1cc(NC(=O)c2cc(Cl)cc(Cl)c2)ccc1N1CCC(N2CCCC2C)C1 (stereo unspecified)
Ki [3]: 54 nM

SMILES: Cc1cc(N2CCC(N3CCCC3C)C2)ccc1NC(=O)c1ccc(CO)cc1 (stereo unspecified)
Ki [3]: 12.7 nM

metabolised [1]: 31% | metabolised [2]: 48% | metabolised [4]: 12%
SMILES: CC1CCCN1C1CCN(c2ccc(NC(=O)c3ccccc3F)cc2)C1 (stereo unspecified)
Ki [3]: 8.2 nM

SMILES: CC1CCCN1C1CCN(c2ccc(NC(=O)c3ccc(CN4CCOCC4)cc3)cc2)C1 (stereo unspecified)
Ki [3]: 70.2 nM

metabolised [1]: 89% | metabolised [2]: 79% | metabolised [4]: 87%
SMILES: Cc1cc(C)n(-c2ccc(C(=O)Nc3ccc(N4CCC(N5CCCC5C)C4)cc3C)cc2)n1 (stereo unspecified)
Ki [3]: 4.3 nM

SMILES: Cc1cc(N2CCC(CN3CCCC3C)C2)ccc1NC(=O)c1ccc(CO)cc1 (stereo unspecified)
Ki [3]: 62.1 nM

metabolised [1]: 30% | metabolised [2]: 57% | metabolised [4]: 9%
SMILES: Cc1cc(N2CCC(N3CCCC3C)C2)ccc1NC(=O)c1cccnc1 (stereo unspecified)
Ki [3]: 10.1 nM
